Results on five compounds are retold here after patent EP2497775A1, “Ferrocene-based compounds and their use as ROS regulating prodrugs” (Ruprecht-Karls-Universität Heidelberg, priority 2011, dated 2012).

Read-outs that look alike come from different tables or passages of the source.

One data set has as its system 8226 (Human myeloma). The conditions noted are these: ref. [1]; cited from earlier work.
The subject of another data set is WiDr (Human, colon). The conditions noted are these: ref. [1]; cited from earlier work.
The test system of data set [1] is different neuroblastoma cell lines. Conditions: ref. [2]; cited from earlier work.
In another data set the test system is (Human, breast). Conditions: ref. [1]; cited from earlier work.
Another data set concerns SW480 (Human, colon). Conditions: ref. [3]; cited from earlier work.
For the next data set, the system named is HT29 (Human, colon). Conditions: ref. [4]; cited from earlier work.
A further data set relates to Fibroplasts. Nature of the data set: Viability of fibroplasts (MTT). Conditions: Fibroplasts (normal cells); read-out: Toxicity of the complexes: IC50. The class given is cell-based. The method, then:
Determination of viability of fibroplasts (Table 4)
Cells were grown either in DMEM medium (Dulbecco's Modified Eagle's Medium) supplemented with 10 % FCS, 1 % L-glutamine and 1% streptomycin/ penicillin up to 80-90 % confluence. Then the cells were trypsinated, washed, re-suspended in the same medium and spread in wells of a 96-wells microtiter plate (-25.000 cells per well, per 100 µL) and left standing at 37 °C in the chamber filled with CO2 (5 %) for 5 h. Stock solutions of prodrugs of different concentrations (1 µL, solvent: DMF / water (1/3, v/v) containing 1 % sodium ascorbate) were added to the wells and incubated for specific periods of time. Four experiments were conducted for each concentration of the prodrug.

For a further data set, the system named is HL60-cells. Nature of the data set: Cell permeability of the prodrugs (boron/curcumin assay). It counts as cell-based, Human. Conditions: 100 µM, 1 h, boron relative to comparative example C.-E. The method, then:
Assay for determination of cell Permeability of the prodrugs (Table 2) (according to the protocol described in J.Plant Nutr. Soil Sci. 1999,162,15-18) HL60-cells grown in RPMI 1640 medium supplemented with 10 % FCS, 1 % glutamine and 1% penicillin / streptomycin were centrifuged and the medium was replaced with RPMI 1640 medium (5 % FCS, 1 % L-glutamine, 1% penicillin) to obtain suspensions containing 10^6 cells per mL. Solutions of prodrugs (5 µL, solvent: DMF containing 2 % water and 1 % sodium ascorbate) were added to the suspensions (500 µL) and incubated for 1 h. The final concentration of the prodrugs in the suspensions was 100 µM. Then the cells were washed 3 times with PBS buffer (3 x 500 µL), treated with concentrated H2O2 solution (200 µL, 1 M) for 30 min and all volatiles were removed by lyophilization. Dry, lysed cells were washed with water (200 µL) and aqueous solution obtained was acidified with HCl (400 µL, 0.1 M). Then this solution was extracted with ethyl-1,3-hexandiol (100 µL, 10 % in CHCl3, v/v) and a portion of the organic phase obtained (40 µL) was mixed with H2SO4 / CH3CO2H (400 µL, 1/1, v/v). Curcumin solution in methylisobutylketone (500 µL, 2 mg in 1 mL of the solvent) was added and allowed to react for 24 h. The reaction was quenched by addition of water (1 mL). […] The value A(550 nm)-A(780 nm) was proportional to concentration of boron in the mixture. Amount of boron released from comparative example C.-E. was taken as a reference. All other values were determined relative to this reference. These values are compared in Table 2 with TLC retention factors, which are proportional to hydrophobicity of the prodrugs.

Data set [2] is described as follows: Release of iron ions from the prodrugs in the presence of hydrogen peroxide (2,2'-bipyridine absorbance). The class given is physicochemical. The conditions noted are these: H2O2 (1 mM), 22°C, 100 min, MOPS buffer pH 7.5; relative to FeSO4 (100 µM). The method, then: Monitoring release of iron ions from the prodrugs A-E, Comparative Example and control compounds in the presence of hydrogen peroxide (Table 1):
Solution of a ferrocene complex (10 µL, 10 mM in DMF containing 2% water and 1% sodium ascorbate) was diluted with MOPS buffer (990 µL, 100 mM, pH 7.5). Such probes were incubated with H2O2 (1 mM) at 22°C for 100 min. Then the reaction was quenched by adding sodium dithionite (20 µL, 1 M in water) that converts Fe^3+ into Fe^2+. Finally, 2,2'-bipyridine solution (3 µL, 100 mM in DMF) was added to form dark red [Fe(2,2'-bipyridine)3]^2+ complex (λmax= 519 nm). FeSO4 sulfate (100 µM) was used as a positive control to determine the absorbance intensity when the ferrocene complexes were completely converted by H2O2 to free Fe^2+. […] The data are provided in Table 2 and were determined by using the following formulae: iron release efficacy = (A519nm(prodrug) - A519nm(buffer)) / (A519nm(FeSO4) - A519nm(buffer)), where A519nm(prodrug) is absorbance at 519 nm of a prodrug treated with H2O2 and 2,2'-bipyridine as described above, A519nm(FeSO4) is absorbance at 519 nm of FeSO4 treated in a similar way as a prodrug and A519nm(buffer) is absorbance at 519 nm of the buffer only treated in a similar way as a prodrug.

Data set [3] in a line: Generation of ROS in vitro (DCFH fluorescence, cell-free). The class given is biochemical. The conditions noted are these: iron complex 100 µM, H2O2 (10 mM), glutathione (5 mM), pH 7.5, relative to FeSO4. The method, then:
Monitoring generation of ROS in the presence of the prodrugs A-E, Comparative Example and control compounds (Table 1):
2',7'-Dichlorfluorescin diacetate (DCFH-DA, 4.9 mg) was dissolved in DMF (100 µL) and mixed with aqueous NaOH (0.1 M, 900 µL). The resulting mixture was incubated for 30 min at 22°C in the dark to obtain the stock solution of 2',7'-dichlorfluorescin (DCFH, 10 mM). Next, the solution (1 mL) containing DCFH (10 µM), MOPS buffer (100 mM, pH 7.5), EDTA (10 mM), glutathione (5 mM) and H2O2 (10 mM) was prepared. Monitoring of fluorescence (λex= 501 nm, λem= 531 nm) of this solution was started. After 3 min, an iron complex (100 µM: ferrocene prodrugs A-E, Comparative Example, negative or positive controls 1 a, P) was added and the fluorescence monitoring was continued. Efficacy of ROS generation was then determined 17 and 37 min after the addition of the iron complex by using the following formulae: efficacy = (F(prodrug) - F0) / (F(FeSO4) - F0), where F(prodrug) is fluorescence of a mixture containing prodrug and treated as described above, F(FeSO4) is fluorescence of a mixture containing FeSO4; F0 is fluorescence of a mixture containing no iron complex.

The next data set deals with HL-60 cells. Put plainly: Generation of ROS in cells (DCFH-DA, flow cytometry). The class given is cell-based, Human. The conditions noted are these: 50 µM, 4 h. The method, then:
Generation of ROS in HL-60 cells in the presence the prodrugs, comparative example C.-E. and controls (Table 3)
The probe of HL-60 cells was taken from the cultivation medium (RPMI 1640 supplemented with 10 % FCS, 1 % L-glutamine and 1% penicillin). The medium was replaced for PBS-buffer to obtain the cell suspension with 10^6 cells per mL. DCFH-DA solution (1 µL, 10 mM in DMSO) was added to the suspension (1 mL) and incubated in the dark chamber filled with CO2 (5 %) at 37 °C for 5 min. Then, the cells were washed with PBS and RPMI 1640 (5 % FCS, 1 % L-glutamine, 1% penicillin) medium and an iron complex (10 µL of stock solutions, solvent: DMF containing 2 % water and 1 % sodium ascorbate, final concentration of the complex - 50 µM) was added. After 4 h of the incubation the fluorescence of live cells (λex = 488 nm, λem = 530 nm) in the suspensions was determined by using the flow cytometer. Efficacy of ROS generation was determined using the following formulae: efficacy = (F(prodrug) - F0) / (F(FeSO4) - F0), where F(prodrug) is mean fluorescence intensity of cells incubated with a prodrug and treated as described above, F(FeSO4) is mean fluorescence intensity of cells incubated with FeSO4; F0 is mean fluorescence intensity of cells, which were not treated with any iron complex.

A short description of data set [4]: TLC retention factor as measure of hydrophobicity. The class given is physicochemical. Conditions: support - SiO2, eluent - hexane / ethyl acetate (3/1, v/v); proportional to hydrophobicity.
The test system of data set [5] is Human promyelocytic leukemia cells (HL-60). Nature of the data set: Viability of HL-60 cells (propidium iodide, flow cytometry). Conditions: read-out: Toxicity of the complexes: IC50. The class given is cell-based. The method, then: Determination of viability of HL-60 cells (Table 4)
HL-60 cells grown in RPMI 1640 medium supplemented with 10 % FCS, 1 % L-glutamine and 1% penicillin were centrifuged, the medium was replaced with RPMI 1640 medium (5 % FCS, 1 % L-glutamine, 1% penicillin) to obtain suspensions containing 10^6 cells per mL. Stock solutions of prodrugs of different concentrations (5 µL, solvent: DMF containing 2 % water and 1 % sodium ascorbate) were added to the cellular suspensions (500 µL) and incubated for specific periods of time. Four experiments were conducted for each concentration of the prodrug. At the end of the incubation period propidium iodide (PI, 1 µL, 1.5 mM in water) was added to label leaky cells and in 5 min the suspension of the cells was analyzed by using flow cytometry.

A further data set concerns HCT8 (colon). Conditions: ref. [8]; cited from earlier work.
A further data set has as its system Human multiple myeloma. The conditions noted are these: ref. [7]; cited from earlier work.
Another data set has as its system HL-60 (leukemia). Conditions: ref. [8]; cited from earlier work.
Data set [6] concerns MES-SA human uterine cancer. The conditions noted are these: ref. [6]; cited from earlier work.

In the case of `CCCCS(=N)(=O)CCC(N)C(=O)O` (stereo not shown) [Buthionine sulfoximine (BSO), Buthionine sulfoximine], the IC50 is 2 µM in the data set on 8226 (Human myeloma); 450 µM in the data set on WiDr (Human, colon); 0.3 to 311 µM in data set [1]; 850 µM in the data set with (Human, breast).
On to `CC(=O)Oc1ccccc1C(=O)Oc1cccc(CO[N+](=O)[O-])c1` [NO-ASA], for which the IC50 was 85 µM in the data set with SW480 (Human, colon) and 3 to 7 µM with HT29 (Human, colon).
As for “4-((N-benzyl-N-Ferrocenylaminocarbonyl)oxymethyl)-2-phenylboronic acid pinacol ester [Prodrug B]”, the results for the IC50 (in the data set on Fibroplasts; in data set [5] (listed as prodrug B); in data set [5]) were over 50 µM, 12 to 26 µM and 12 ± 2 µM, respectively. Further, the “Relative efficiency of cell loading” value in the data set with HL60-cells turned out to be 1.8. Besides, in data set [2], the “Efficacy of iron release in vitro” value was 0.09. The “Efficacy of ROS generation in vitro” value in data set [3] (17 min incubation) is given as 0.24; in data set [3] (37 min incubation) it was 0.53. For the same compound, the “Efficacy of ROS release in cells” value in the data set with HL-60 cells was found to be 0.09 ± 0.02. In addition, the “TLC-retention factor (Rf)” value in data set [4] was found to be 0.46.
Regarding `CC1(C)CCC2=C(O1)c1ccccc1C(=O)C2=O` [β-Lapachone], the IC50 in the data set on HCT8 (colon) was 0.83 µM; in the data set on Human multiple myeloma, 1 µM; in the data set with HL-60 (leukemia), 1.65 µM.
Turning to `CC(=O)[O-].CC(=O)[O-].CCc1c(CC)c2cc3nc(cnc4cc(OCCOCCOCCOC)c(OCCOCCOCCOC)cc4ncc4nc(cc1[n-]2)C(CCCO)=C4C)C(C)=C3CCCO.[Gd+3]` [Motexafin gadolinium], the IC50 in data set [6] is about 12 µM.
